What was measured:
Assay type in all cases: in vivo, rat
[1] = test system: urethane-anesthetized female rats; assay: Leak point pressure by abdominal wall electrostimulation, rats with nerve to iliococcygeus/pubococcygeus muscle transected on one side (Example 2); settings: for leak point pressure after drug administration / leak point pressure increase / leak point pressure before drug administration: i.v., mean ± SEM; for leak point pressure before drug administration: baseline
Protocol: SD female rats (body weight 180-350 g) were anesthetized with urethane (Wako Pure Chemical Industries, Ltd.), and the spinal cord was cut at T8-9 level to eliminate the reflex voiding. In addition, the nerve to the iliococcygeus muscle/pubococcygeus muscle on the one side was transected. During operation, halothane (Takeda Pharmaceutical Company Limited) anesthesia was added when necessary. A catheter (PE-90, Clay Adams) was inserted into the bladder and secured with a ligature, and the incised part of each of the abdominal muscle and skin was closed with sutures. The abdominal skin near the diaphragm was incised at two left and right positions to newly expose the abdominal muscle. An Evans Blue dye (Merck) solution was injected into the bladder, and the bladder volume was adjusted to 0.2-0.3 ml. The bladder catheter was connected to a pressure transducer, and the signals of the transducer were sent to a computer via an amplifier (blood pressure amplification unit AP-641G; NIHON KOHDEN) and an analog-to-digital converter (BIOPAC; MP100), and recorded on a hard disc. The data were analyzed on a computer using software (BIOPAC; AcqKnowledge). The exposed abdominal muscle was electrostimulated using an electrostimulator (SEN-3301; NIHON KODEN) and an isolator (SS-202J; NIHON KODEN), and the presence or absence of incontinence from the urethral orifice was observed. The electrostimulation was applied at a voltage of 3-50 V, duration of 0.05-0.5 milisec, and frequency 50 Hz for 1 sec, thereby gradually increasing the intravesical pressure. The peak intravesical pressure during stimulation of the abdominal wall was measured and, of the trials with observed incontinence, the lowest peak intravesical pressure was defined as the leak point pressure. The leak point pressure was compared before and after the duloxetine and midodrine administration. Duloxetine was dissolved in […] (DMA)/polyethylene glycol 400 (PEG400) (1:1), and intravenously administered at 0.5 ml/kg. Midodrine (hydrochloride, Sigma) was dissolved in saline and intravenously administered at 1 ml/kg.

[2] = test system: urethane-anesthetized female rats; assay: Antagonism of the leak point pressure increase by WAY-161503 / WAY-163909, abdominal wall-electrically stimulating method (Example 3); settings: agonist 0.3 mg/kg, i.v., antagonist: solvent, mean ± SEM
Protocol: (§1) SD female rats (body weight 180-350 g) were anesthetized with urethane (Wako Pure Chemical Industries, Ltd.), and the spinal cord was transected at T8-9 level to eliminate the reflex voiding. In addition, the nerve to the iliococcygeus muscle/pubococcygeus muscle on the one side was transected. During operation, halothane (Takeda Pharmaceutical Company Limited) anesthesia was added when necessary. A catheter (PE-90, Clay Adams) was inserted into the bladder and secured with a ligature, and the incised part of each of the abdominal muscle and skin was closed with sutures. The abdominal skin near the diaphragm was incised at two left and right positions to newly expose the abdominal muscle. An Evans Blue dye (Merck) solution was injected into the bladder, and the bladder volume was adjusted to 0.2-0.3 ml. The bladder catheter was connected to a pressure transducer, and the signals of the transducer were sent to a computer via an amplifier (blood pressure amplification unit AP-641G; NIHON KOHDEN) and an analog-to-digital converter (BIOPAC; MP100), and recorded on a hard disc. The data were analyzed on a computer using software (BIOPAC; AcqKnowledge). The exposed abdominal muscle was electrostimulated using an electrostimulator (SEN-3301; NIHON KODEN) and an isolator (SS-202J; NIHON KODEN), and the presence or absence of incontinence from the meatus urethra was observed. The electrostimulation was applied at a voltage of 2.5-50 V, duration of 0.5 milisec, and frequency 50 Hz for 1 sec, thereby gradually increasing the intravesical pressure. The peak intravesical pressure during stimulation of the abdominal wall was measured and, of the trials with observed incontinence, the lowest peak intravesical pressure was defined as the leak point pressure. Serotonin 5-HT receptor agonist, WAY-161503 (5-HT2C receptor agonist), WAY-163909 (5-HT2C receptor agonist), DOI (5-HT2A/2B/2C receptor agonist), mCPP (5-HT2B/2C receptor partial agonist), eltoprazine (5-HT1A/1B/2C receptor partial agonist), 8-OH-DPAT (5-HT1A receptor agonist), sumatryptan (5-HT1B/1D receptor agonist) and BW723C86 (5-HT2B receptor agonist) were intravenously administered, and the leak point pressure was compared before and after the administration. DOI, mCPP and eltoprazine were dissolved in saline, and other drugs were dissolved in DMA/PEG400 (1:1), and they were intravenously administered at 1 ml/kg and 0.5 mg/kg, respectively. Depending on the experiment, RS-102221 (serotonin 5-HT2C receptor antagonist) or SB221284 (serotonin 5-HT2B/2C receptor antagonist) was intravenously administered 5 min before WAY-161503 or WAY-163909 administration, and an antagonistic effect against the WAY-161503 or WAY-163909-induced increment of the leak point pressure was examined. RS-102221 and SB221284 were both dissolved in DMA/PEG400 (1:1) and intravenously administered at 0.5 ml/kg.

[3] = test system: urethane-anesthetized female rats; assay: Leak point pressure by abdominal wall-electrically stimulating method, serotonin 5-HT receptor agonists (Example 3); settings: for leak point pressure after drug administration / leak point pressure increase / leak point pressure before drug administration: i.v., mean ± SEM; for leak point pressure before drug administration: baseline
Protocol: as §1

Compound: CNCC[C@H](Oc1cccc2ccccc12)c1cccs1 [duloxetine]
- leak point pressure after drug administration ([1]; 0.3 mg/kg): 48.3 ± 7.9 cmH2O
- leak point pressure increase ([1]; 0.3 mg/kg): 2.4 ± 4.3 cmH2O
- leak point pressure after drug administration ([1]; 1 mg/kg): 53.0 ± 4.8 cmH2O
- leak point pressure increase ([1]; 1 mg/kg): 8.1 ± 2.3 cmH2O
- leak point pressure after drug administration ([1]; 3 mg/kg): 61.4 ± 3.9 cmH2O
- leak point pressure increase ([1]; 3 mg/kg): 12.9 ± 3.2 cmH2O
- leak point pressure after drug administration ([1]; 10 mg/kg): 53.0 ± 8.8 cmH2O
- leak point pressure increase ([1]; 10 mg/kg): 13.0 ± 2.5 cmH2O
- leak point pressure before drug administration ([1]; dose group 0.3 mg/kg): 45.9 ± 5.4 cmH2O
- leak point pressure before drug administration ([1]; dose group 1 mg/kg): 44.9 ± 5.9 cmH2O
- leak point pressure before drug administration ([1]; dose group 3 mg/kg): 48.5 ± 4.8 cmH2O
- leak point pressure before drug administration ([1]; dose group 10 mg/kg): 40.0 ± 7.3 cmH2O
- effect on leak point pressure, comparison before and after administration ([1]; intravenously administered): significant increase in the leak point pressure

Compound: O=C1Nc2cc(Cl)c(Cl)cc2N2CCNCC12 (stereo not drawn) [WAY-161503]
- leak point pressure after drug administration [2]: 76.6 ± 5.4 cmH2O
- leak point pressure increase [2]: 27.8 ± 2.8 cmH2O
- leak point pressure before drug administration ([2]; baseline): 48.7 ± 5.3 cmH2O
- leak point pressure after drug administration ([3]; 0.03 mg/kg): 58.7 ± 6.8 cmH2O
- leak point pressure increase ([3]; 0.03 mg/kg): 9.7 ± 2.9 cmH2O
- leak point pressure after drug administration ([3]; 0.1 mg/kg): 59.5 ± 4.9 cmH2O
- leak point pressure increase ([3]; 0.1 mg/kg): 12.6 ± 2.8 cmH2O
- leak point pressure after drug administration ([3]; 0.3 mg/kg): 68.1 ± 6.8 cmH2O
- leak point pressure increase ([3]; 0.3 mg/kg): 19.6 ± 4.4 cmH2O
- leak point pressure after drug administration ([3]; 1 mg/kg): 80.1 ± 2.7 cmH2O
- leak point pressure increase ([3]; 1 mg/kg): 30.7 ± 3.5 cmH2O
- leak point pressure before drug administration ([3]; dose group 0.03 mg/kg): 49.0 ± 8.0 cmH2O
- leak point pressure before drug administration ([3]; dose group 0.1 mg/kg): 46.9 ± 4.6 cmH2O
- leak point pressure before drug administration ([3]; dose group 0.3 mg/kg): 48.5 ± 5.2 cmH2O
- leak point pressure before drug administration ([3]; dose group 1 mg/kg): 49.4 ± 1.4 cmH2O
- dose at which a significant effect on the leak point pressure was afforded ([3]; intravenous administration): not less than 0.03 mg/kg
- effect on leak point pressure ([3]; intravenous administration): dose-dependently increased the leak point pressure
